The test system of test [1] is asthma and rhinitis animal models induced with ovalbumin. As to the kind of experiment: FL and H2 domain peptides in ovalbumin-induced asthma and rhinitis animal models. Format: in vivo, BALB/c female mice. As to conditions: for inflammatory cells in bronchoalveolar lavage fluid (total cell number, leukocyte number) / level of IL-5 in bronchoalveolar lavage fluid: 20 mg/kg intraperitoneal, vs positive control (PBS). The method, then:
Particularly, 5 week old specific pathogen free BALB/c female mice (weight: approximately 20 g) were purchased from Orientbio Inc. (Seoul, Korea), followed by stabilization in an animal laboratory for 1 week. The mice were administered with 200 ? of PBS containing 1.3 mg of aluminum hydroxide (Sigma A8222) and 100 μg of ovalbumin (Sigma A5503) via intraperitoneal injection twice at a week interval, followed by sensitization. Then, 20 ? of PBS containing 200 μg of ovalbumin dissolved therein was administered via intranasal instillation on day 14, day 16, and day 18 to induce immune response. PBS was administered for the positive control and FL and H2 domains and the antisera or antibodies thereof were administered via intraperitoneal injection 10 minutes before antigen administration. On day 15, day 17, and day 19, intraperitoneal administration was performed without antigen administration. On day 19, the animals were sacrificed 2 hours after the administration (FIG. 16). 50 μg of anti-C terminus IgG was administered via intranasal instillation or intraperitoneal injection 30 minutes before the antigen administration on day 14, day 16, and day 18. 24 hours after the last administration, the animals were sacrificed (FIG. 26). The asthma and rhinitis models constructed in Example 7 were treated with FL and H2 domain at the concentration of 20 mg/kg in order to investigate whether or not those two HRF receptor binding domains could suppress pathophysiological lesion of asthma and rhinitis. Particularly, after cardiac blood collection in the animal model constructed in Example 7, bronchoalveolar lavage was performed. The airway was opened and a 20-gauge intravascular tube catheter was inserted through the opened airway, through which 0.8 ml of PBS containing 2% FBS was slowly injected three times and then recovered. The recovery rate was at least 80% and the recovered washing solution was centrifuged at 4° C. for 15 minutes at 1,000×g. The obtained supernatant was used for the detection of cytokine such as IL-5 or for the detection of TCTP protein. In the meantime, the precipitate was resuspended in 100 ? of PBS containing 2% FBS. The number of the inflammatory cells infiltrated in the washing solution was counted by using HEMAVET 950FS (Drew Scientific). Particularly, upon completion of the experiment in Example 7, the mixture of zoletil (250 mg/kg) and rompun (50 mg/kg) was administered to the mouse via intraperitoneal injection to sacrifice the animal. 0.7˜0.8 mL of blood was collected from the heart and placed in a heparinized tube. The blood sample stood at room temperature for 30 minutes˜1 hour, followed by centrifugation at 1,000×g for 15 minutes to obtain plasma. The level of ovalbumin-specific IgE in the plasma was measured by ELISA. 100 μg of ovalbumin was dissolved in 0.05 M carbonate buffer (pH 9.6), which was distributed in a 96-well ELISA plate, followed by coating at 4° C. for overnight. Non-specific reaction was blocked by reacting the plate with TBS containing 1% BSA at room temperature for 30 minutes. The plasma sample was diluted (1:100), followed by reaction at room temperature for 1 hour, which was then washed with TBS containing 0.1% Tween-20. The […] anti-mouse IgE (SouthernBiotech) was diluted (1:8000), followed by reaction at room temperature for 1 hour. Then, the mixture was washed. TMB was treated thereto at room temperature. 10 minutes later, the reaction was terminated by adding 0.2 M H2SO4. Then, OD450 was measured with an ELISA reader. Particularly, bronchoalveolar lavage fluid was collected from the asthma and rhinitis animal models constructed in Example 7. The chest was dissected and the lung was extracted, which was washed with 4° C. PBS. The lung was cut to the appropriate size. Some of the lung pieces were fixed in PBS containing 4% paraformaldehyde (PFA) at room temperature via o/n fixation. […]

Another test deals with T1, Del-N11dTCTP (Rattus norvegicus, UniProt P63029).
T1 construct: made in house
T1 sequence (P63029 11-172 limits assumed): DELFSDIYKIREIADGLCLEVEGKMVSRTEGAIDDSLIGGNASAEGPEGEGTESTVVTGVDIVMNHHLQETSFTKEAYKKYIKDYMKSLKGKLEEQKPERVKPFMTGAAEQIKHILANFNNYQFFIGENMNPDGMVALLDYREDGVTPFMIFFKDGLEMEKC
The experiment in a line: Inhibition of Del-N11dTCTP-induced IL-8 secretion by domain peptides in BEAS-2B cells. It counts as cell-based. The settings on record: Del-N11dTCTP 70 nM, peptide molar ratios 0~1, 24 hours, ELISA. The method, then: To investigate inhibitory effect of FL domain, Helix 2 domain, and Helix 3 domain on Del-N11dTCTP, the inventors synthesized FL domain (Ac-[…]-NH2) (SEQ. ID. NO: 1), Helix 2 domain (Ac-[…]-NH2) (SEQ. ID. NO: 11), and Helix 3 domain (Ac-[…]-NH2) (SEQ. ID. NO: 22) by using the synthetic peptides prepared with NH2-terminal acetylation and COOH-terminal amidation, followed by purification.
Particularly, BEAS-2B cells were treated with Del-N11dTCTP (70 nM) by the same manner as described in Experimental Example 1. At this time, the synthesized FL domain, Helix 2 domain, and Helix 3 domain were treated to the cells at different molar ratios (0˜1), followed by reaction for 30 minutes. Then, Del-N11dTCTP was added thereto. 24 hours later, the supernatant was obtained and the released IL-8 was quantified by ELISA.
On the technique in general: An ELISA detects its analyte on a solid surface through an enzyme-linked reagent.

For test [2], the system named is asthma and rhinitis animal models induced with ovalbumin. As to the kind of experiment: FL and H2 domain peptides in ovalbumin-induced asthma and rhinitis animal models. It counts as in vivo, BALB/c female mice.

“Also recorded” adds a separate entry of the source.

As for “Ac-TKEAYKKYIKDYMKSLKGKLEEQKP-NH2 [Helix 2 domain, ID; NO: 11]”, in test [1], the “inflammatory cells in bronchoalveolar lavage fluid (total cell number, leukocyte number)” value is listed as “decreased” and the “level of IL-5 in bronchoalveolar lavage fluid” value is listed as “reduced”. Moreover, the “inhibition of IL-8 secretion induced by Del-N11dTCTP” value with Del-N11dTCTP was “inhibited IL-8 secretion better than Helix 3 domain; also recorded: inhibited more strongly”.
“Ac-SRTEGAIDDSLIGGNASAEGPEGEGTESTVVT-NH2 [FL domain, ID; NO: 1]”: in test [1], the “inflammatory cells in bronchoalveolar lavage fluid (total cell number, leukocyte number)” value is reported as “significantly lower” and the “level of IL-5 in bronchoalveolar lavage fluid” value is reported as “reduced”. The “level of ovalbumin-specific IgE in plasma” value in test [1] (20 mg/kg, ELISA, vs positive control) was “reduced”. In addition, in test [1] (20 mg/kg, p<0.01), the “number of total cells and level of lymphocytes in bronchoalveolar lavage fluid” value was “significantly reduced”. For the same substance, in test [1] (vs positive control), the “level of TCTP dimer (approximately 45 kDa) in bronchoalveolar lavage fluid, immunoblotting” value is given as “reduced” and the “phospho-IκBα in lung tissue, immunoblotting” value was “decreased”. Further, the “IL-5 secretion in bronchoalveolar lavage fluid” value in test [2] (1 mg/kg) is “could inhibit IL-5 secretion”. In test [2] (1 mg/kg and 20 mg/kg), the “inflammatory cells infiltrated in bronchoalveolar lavage fluid, dose dependence” value is recorded as “reduced FL domain dose-dependently”. In test [2] (various concentrations (1 and 20 mg/kg)), the “level of ovalbumin-specific IgE in plasma, dose dependence” value is on record as “reduced by the treatment of FL domain dose-dependently”. In addition, in the test with Del-N11dTCTP, the “inhibition of IL-8 secretion induced by Del-N11dTCTP” value is “inhibited IL-8 secretion better than Helix 3 domain; also recorded: inhibited more strongly”.
